The results in this text go back to publication PMC9016125 (The Journal of Antibiotics, 2022).

The test concerns the target T1, sortase A (SrtA) (Staphylococcus aureus, UniProt Q2FV99).
T1 sequence (Q2FV99 1-206): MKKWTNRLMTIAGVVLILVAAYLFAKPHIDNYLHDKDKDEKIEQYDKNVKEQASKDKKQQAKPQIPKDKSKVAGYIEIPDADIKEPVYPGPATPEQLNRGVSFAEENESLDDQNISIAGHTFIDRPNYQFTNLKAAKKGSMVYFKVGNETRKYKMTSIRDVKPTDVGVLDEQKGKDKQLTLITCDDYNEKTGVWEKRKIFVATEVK
Description: microscale thermophoresis with labeled purified SrtA. It is filed as binding.

The compound `Nc1c(Cl)cccc1C(=O)Nc1ccccc1C(=O)O` [compound 5, 2-(2-amino-3-chloro-benzoylamino)-benzoic acid] registered a Kd of 189 µM.
